Bounds are passed on as bounds.

By IC50 is commonly meant the concentration that inhibits the measured activity by half.

One assay deals with T1, CCKB receptor (Cavia porcellus, UniProt H0VZC5).
T1 sequence (H0VZC5 1-426): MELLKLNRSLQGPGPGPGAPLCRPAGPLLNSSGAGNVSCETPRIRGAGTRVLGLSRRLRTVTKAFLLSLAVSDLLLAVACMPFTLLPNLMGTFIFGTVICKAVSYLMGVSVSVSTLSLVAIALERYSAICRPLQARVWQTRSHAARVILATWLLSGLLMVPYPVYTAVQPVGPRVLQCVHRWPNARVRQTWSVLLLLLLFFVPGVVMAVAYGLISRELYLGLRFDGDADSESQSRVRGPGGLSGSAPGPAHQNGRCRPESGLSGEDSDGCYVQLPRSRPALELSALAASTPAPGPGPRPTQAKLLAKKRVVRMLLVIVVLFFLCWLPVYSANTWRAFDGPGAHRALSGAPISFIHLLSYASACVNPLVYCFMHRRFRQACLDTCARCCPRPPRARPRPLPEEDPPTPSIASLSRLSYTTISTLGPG
Briefly: 125I-CCK-8 receptor binding assay, CCKB (guinea pig cerebral cortex). The note with it: CCKB IC50, Table 1. Here is the method: CCKA and CCKB receptor binding assays were performed, by using guinea pig cerebral cortex (CCKB) or rat pancreas (CCKA). […]. J. Pharmacol., 269, 249-254]. Pancreatic membranes were prepared in a similar way but by Charpentier et al [(1988), Cyclic cholecystokinin analogues with high selectivity for central receptors., Proc Natl Acad Sci USA, 85, 1968-1972]. The […] CCK binding assay: Tissues were homogenised in ice cold sucrose (0.32 M, 25 ml) for 15 strokes at 500 rpm and centrifuged at 13000 rpm for 10 mins. The supernatant was re-centrifuged at 13000 rpm for 20 mins. The resulting pellet was re-dispersed to the required volume of buffer at 500 rpm and stored in aliquots at […].
(§1) The samples were incubated {with membranes (0.1 mg/ml)} in 20 mM Hepes, 1 mM EGTA, 5 mM MgCl2, 150 mm NaCl, 0.25 mg/ml bacitracin at pH 6.5 for 2 hrs at RT and then […] by centrifugation at 1100 rpm for 5 minutes. The membrane pellets were washed twice with water and the bound radioactivity was measured in a Packard Cobra Auto-gamma counter (B5005). All binding assays were carried out with L-363, 260 as an internal non-specific standard. Controls (no compound) were also added. All samples were made in duplicate and repeated twice. All compounds were initially screened for percentage inhibition at 20 μM.
`O=C1Nc2ccc(Cl)cc2C(c2ccccc2)=NC1Nc1cccc(Cl)c1` (single isomer, unassigned) [Example 2] displayed an IC50 of 0.32 µM. Still for that read-out and setting: the value for `CN(Cc1ccccc1)C1N=C(c2ccccc2)c2cc(Cl)ccc2NC1=O` (single isomer, unassigned) [Example 6] was 0.86 µM; that for `CCCCc1ccc(NC2N=C(c3ccccc3)c3cc(Cl)ccc3NC2=O)cc1` (centres unmarked) [Example 3] was 0.58 µM; that for `Cc1ccc(NC2N=C(c3ccccc3)c3cc(Cl)ccc3NC2=O)cc1C` (centres unmarked) [Example 4] was 0.66 µM.

Compound `O=C1Nc2ccc(Cl)cc2C(c2ccccc2)=NC1N1CCOCC1` (centres unmarked) [Example 11] had an IC50 of 2.7 µM.

The assay is the same for the next values; noted with them: IC50 CCKB.
`CC(C)N(C1CCCCC1)C1N=C(c2ccccc2)c2cc(Cl)ccc2NC1=O` (single isomer, unassigned) [Example 8] yielded a concentration for half-maximal inhibition (IC50) of 0.19 µM. The same measure, in the same setting: the same measure for `CN(c1ccccc1)C1N=C(c2ccccc2)c2cc(Cl)ccc2NC1=O` (centres unmarked) [Example 24, 7-chloro-3-(methylanilino)-5-phenyl-1,3-dihydro-2H-1,4-benzodiazepin-2-one]: 0.15 µM; for `Cc1ccc(NC2N=C(c3ccccc3)c3cc(Cl)ccc3NC2=O)cc1C` (centres unmarked) [Example 31, 7-chloro-3-(3,4-dimethylanilino)-5-phenyl-1,3-dihydro-2H-1,4-benzodiazepin-2-one]: 0.92 µM.

The assay is the same for the next values; noted with them: IC50 CCKB, Table 2.
As for `O=C1Nc2ccc(Cl)cc2C(c2ccccc2)=NC1N1CCCc2ccccc21` (centres unmarked) [Example 17, 7-chloro-3-[3,4-dihydroquinolin-1(2H)-yl]-5-phenyl-1,3-dihydro-2H-1,4-benzodiazepin-2-one], the IC50 turned out to be 7.2 µM.

`CC(=O)c1ccccc1NC1N=C(c2ccccc2)c2cc(Cl)ccc2NC1=O` (centres unmarked) [Example 18, 3-(2 acetylanilino)-7-chloro-5-phenyl-1,3-dihydro-2H-1,4-benzodiazepin-2-one]: the IC50 was 8.4 µM. The same measure, in the same setting: the same measure for `COc1cccc(NC2N=C(c3ccccc3)c3cc(Cl)ccc3NC2=O)c1` (centres unmarked) [Example 19, 7-chloro-3-(3-methoxyanilino)-5-phenyl-1,3-dihydro-2H-1,4-benzodiazepin-2-one]: 1.5 µM; for `COc1ccc(NC2N=C(c3ccccc3)c3cc(Cl)ccc3NC2=O)cc1OC` (centres unmarked) [Example 20, 7-chloro-3-(3,4-dimethoxyanilino)-5-phenyl-1,3-dihydro-2H-1,4-benzodiazepin-2-one]: 1.2 µM.

For the compound `O=C1Nc2ccc(Cl)cc2C(c2ccccc2)=NC1Nc1ccccc1` (centres unmarked) [Example 22, 3-anilino-7-chloro-5-phenyl-1,3-dihydro-2H-1,4-benzodiazepin-2-one], the IC50 worked out at 4.1 µM. As for `O=C1Nc2ccc(Cl)cc2C(c2ccccc2)=NC1NCc1ccccc1` (centres unmarked) [Example 23, 3-(benzylamino)-7-chloro-5-phenyl-1,3-dihydro-2H-1,4-benzodiazepin-2-one], the IC50 stood at 6 µM. On the same count and under the same terms, the same measure for `CN(Cc1ccccc1)C1N=C(c2ccccc2)c2cc(Cl)ccc2NC1=O` (centres unmarked) [Example 25]: 2.9 µM; for `CCCNC1N=C(c2ccccc2)c2cc(Cl)ccc2NC1=O` (centres unmarked) [Example 28, 3-(propylamino)-7-chloro-5-phenyl-1,3-dihydro-2H-1,4-benzodiazepin-2-one]: 8.9 µM; for `O=C1Nc2ccc(Cl)cc2C(c2ccccc2)=NC1NC1CCCCC1` (centres unmarked) [Example 30, 7-chloro-3-(cyclohexylamino)-5-phenyl-1,3-dihydro-2H-1,4-benzodiazepin-2-one]: 10.1 µM. The same measure, in the same setting: the value for `O=C1Nc2ccc(Cl)cc2C(c2ccccc2)=NC1N1CCCCC1` (centres unmarked) [Example 32, 7-chloro-3-(piperidin-1-yl)-5-phenyl-1,3-dihydro-2H-1,4-benzodiazepin-2-one] was above 15 µM. Same read-out and setting: the same measure for `CC(C)N(C1CCCCC1)C1N=C(c2ccccc2)c2cc(Cl)ccc2NC1=O` (centres unmarked) [Example 33, 7-chloro-3-(isopropylcyclohexylamino)-5-phenyl-1,3-dihydro-2H-1,4-benzodiazepin-2-one]: above 15 µM. `CCN(C1CCCCC1)C1N=C(c2ccccc2)c2cc(Cl)ccc2NC1=O` (centres unmarked) [Example 34, 7-chloro-3-(ethylcyclohexylamino)-5-phenyl-1,3-dihydro-2H-1,4-benzodiazepin-2-one] registered a half-inhibitory concentration (IC50) above 15 µM.

Staying with this assay, now noted: IC50 CCKB, Table 3.
`O=C1Nc2ccc(Cl)cc2C(c2ccccc2)=NC1Nc1ccccc1[N+](=O)[O-]` (centres unmarked) [Example 35, 7-chloro-3-(2-nitroanilino)-5-phenyl-1,3-dihydro-2H-1,4-benzodiazepin-2-one] returned a concentration for half-maximal inhibition (IC50) of 7.5 µM. The same measure, in the same setting: the value for `O=C1Nc2ccc(Cl)cc2C(c2ccccc2)=NC1Nc1cccc([N+](=O)[O-])c1` (centres unmarked) [Example 36] was 6 µM; that for `O=C1Nc2ccc(Cl)cc2C(c2ccccc2)=NC1Nc1ccc([N+](=O)[O-])cc1` (centres unmarked) [Example 37] was 8.5 µM.

The assay is the same for the next values; noted with them: IC50 CCKB, Table 4, alkylated oxazepam derivatives.
For `C#CCN1C(=O)C(O)N=C(c2ccccc2)c2cc(Cl)ccc21` (centres unmarked) [Example 58, 7-chloro-3-hydroxy-5-phenyl-1-prop-2-ynyl-1,3-dihydro-2H-1,4-benzodiazepin-2-one], the IC50 stood at 0.96 µM. Regarding `O=C1C(O)N=C(c2ccccc2)c2cc(Cl)ccc2N1Cc1ccccc1` (centres unmarked) [Example 59, 7-chloro-3-hydroxy-5-phenyl-1-benzyl-1,3-dihydro-2H-1,4-benzodiazepin-2-one], the half-inhibitory concentration (IC50) is 0.76 µM.

`C=CCN1C(=O)C(O)N=C(c2ccccc2)c2cc(Cl)ccc21` (centres unmarked) [Example 60, 7-chloro-3-hydroxy-5-phenyl-1-allyl-1,3-dihydro-2H-1,4-benzodiazepin-2-one] gave an IC50 of 0.98 µM.

`CCOC(=O)N1C(=O)C(O)N=C(c2ccccc2)c2cc(Cl)ccc21` (centres unmarked) [Example 61, 7-chloro-3-hydroxy-5-phenyl-1-ethoxycarbonyl-1,3-dihydro-2H-1,4-benzodiazepin-2-one] returned a concentration for half-maximal inhibition (IC50) of 0.69 µM. On the same count and under the same terms, the value for `O=C(CN1C(=O)C(O)N=C(c2ccccc2)c2cc(Cl)ccc21)c1ccccc1` (centres unmarked) [Example 62, 7-chloro-3-hydroxy-5-phenyl-1-phenacyl-1,3-dihydro-2H-1,4-benzodiazepin-2-one] was 0.2 µM.

Still in this assay, the particulars now being: Table 2; read-out: IC50 CCKB.
Take `Cc1c(NC2N=C(c3ccccc3)c3cc(Cl)ccc3NC2=O)c(=O)n(-c2ccccc2)n1C` (centres unmarked) [Example 13]: the half-inhibitory concentration (IC50) was 9.3 µM. Still for that read-out and setting: the value for `COc1cc(NC2N=C(c3ccccc3)c3cc(Cl)ccc3NC2=O)cc(OC)c1C(C)=O` (centres unmarked) [Example 21, 3-(4-acetyl-3,5-dimethoxyanilino)-7-chloro-5-phenyl-1,3-dihydro-2H-1,4-benzodiazepin-2-one] was 5.3 µM.

The assay is the same for the next values; noted with them: read-out: IC50 CCKB.
`Cc1cccc(N(C)C2N=C(c3ccccc3)c3cc(Cl)ccc3N(CC(=O)C(C)(C)C)C2=O)c1` (racemic) [Example 64, 7-chloro-1-(3,3-dimethyl-2-oxobutyl)-3-(3-dimethylanilino)-5-phenyl-1,3-dihydro-2H-1,4-benzodiazepin-2-one]: the IC50 is around 0.008 µM.

In the next assay the target is T2, CCKA receptor (Rattus norvegicus, UniProt P30551).
T2 construct: Pancreatic membranes were prepared in a similar way; from tissue; host or cells: rat pancreas membranes
T2 sequence (P30551 1-444): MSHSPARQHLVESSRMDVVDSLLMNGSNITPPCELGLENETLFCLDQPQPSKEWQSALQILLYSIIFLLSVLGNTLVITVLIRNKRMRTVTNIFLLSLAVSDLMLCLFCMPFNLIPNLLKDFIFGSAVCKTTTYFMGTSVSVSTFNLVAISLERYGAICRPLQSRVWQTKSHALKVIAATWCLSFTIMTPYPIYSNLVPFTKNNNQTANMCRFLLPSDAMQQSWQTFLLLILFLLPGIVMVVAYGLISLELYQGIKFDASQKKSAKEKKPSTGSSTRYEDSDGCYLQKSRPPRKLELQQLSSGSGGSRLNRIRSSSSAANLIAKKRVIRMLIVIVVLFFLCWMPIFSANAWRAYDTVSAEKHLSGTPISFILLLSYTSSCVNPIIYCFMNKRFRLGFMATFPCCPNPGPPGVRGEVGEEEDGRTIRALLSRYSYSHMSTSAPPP
Nature of the assay: 125I-CCK-8 receptor binding assay, CCKA (rat pancreas).
Conditions: not given
The method, then:
CCKA and CCKB receptor binding assays were performed, by using guinea pig cerebral cortex (CCKB) or rat pancreas (CCKA). Male guinea pig brain tissues were prepared according to the modified method described by Saita et al [(1994), Characterization of YM022: its CCKB/gastrin receptor binding profile and antagonism to CCK-8-induced Ca2+ mobilization., Eur. J. Pharmacol., 269, 249-254]. Pancreatic membranes were prepared in a similar way but by Charpentier et al [(1988), Cyclic cholecystokinin analogues with high selectivity for central receptors., Proc Natl Acad Sci USA, 85, 1968-1972]. The […] CCK binding assay: Tissues were homogenised in ice cold sucrose (0.32 M, 25 ml) for 15 strokes at 500 rpm and centrifuged at 13000 rpm for 10 mins. The supernatant was re-centrifuged at 13000 rpm for 20 mins. The resulting pellet was re-dispersed to the required volume of buffer at 500 rpm and stored in aliquots at […].
as §1
`Cc1cccc(N(C)C2N=C(c3ccccc3)c3cc(Cl)ccc3N(CC(=O)C(C)(C)C)C2=O)c1` (racemic) [Example 64, 7-chloro-1-(3,3-dimethyl-2-oxobutyl)-3-(3-dimethylanilino)-5-phenyl-1,3-dihydro-2H-1,4-benzodiazepin-2-one] yielded an IC50 of around 0.024 µM. Same read-out and setting: the value for `O=C1Nc2ccc(Cl)cc2C(c2ccccc2)=NC1Nc1cccc([N+](=O)[O-])c1` (centres unmarked) [Example 36] was 0.011 µM; that for `COc1cccc(NC2N=C(c3ccccc3)c3cc(Cl)ccc3NC2=O)c1` (centres unmarked) [Example 42] was 0.01 µM.

The same assay, now with this note: Table 3.
The compound `O=C1Nc2ccc(Cl)cc2C(c2ccccc2)=NC1Nc1ccccc1[N+](=O)[O-]` (centres unmarked) [Example 35, 7-chloro-3-(2-nitroanilino)-5-phenyl-1,3-dihydro-2H-1,4-benzodiazepin-2-one] had an IC50 above 20 µM. On the same count and under the same terms, the same measure for `O=C1Nc2ccc(Cl)cc2C(c2ccccc2)=NC1Nc1ccc([N+](=O)[O-])cc1` (centres unmarked) [Example 37]: above 20 µM.

The same assay, now with this note: Table 3; ratio of IC50 values.
As to `O=C1Nc2ccc(Cl)cc2C(c2ccccc2)=NC1Nc1cccc([N+](=O)[O-])c1` (centres unmarked) [Example 36], the “Ratio CCKB:CCKA” value is listed as 545. Same read-out and setting: the value for `COc1cccc(NC2N=C(c3ccccc3)c3cc(Cl)ccc3NC2=O)c1` (centres unmarked) [Example 42] was 450.

These data come from patent US20070185094A1, “Novel 3-substitued-1,4-benzodiazepines” (ASTON UNIVERSITY, priority 2003, published 2007).
